Data: US20110230536A1, “PHENYLPYRAZOLE INHIBITORS OF STORE OPERATED CALCIUM RELEASE” (CalciMedica, Inc., priority 2008, published 2011)

Columns and labels:
JR251 or RBL cells = test: Fluorescence-based assay of store-operated calcium entry (JR251 or RBL cells); assay type: cell-based; conditions: in either JR251 or RBL cells, or both
Protocol: Fluorescence-based assays are used for screening the compounds described herein, such as compounds of Formulas (I) and (II) which modulate intracellular calcium. […]
B. Fluorescence-based Assay of Store-Operated Calcium Entry in RBL-2H3 Cells.
RBL-2H3 cells are obtained from ATCC and maintained in complete medium with 10% FBS at 37° C./6% CO2.
The day prior to performing the assay, RBL-2H3 cells are plated in 50 μL of complete medium in a 384 well plate. Cells are grown at 37° C./6% CO2 overnight and grow to 50-60% confluence by the next day. On the assay day, 1.5 μM Fluo-4-AM dye (Invitrogen) in complete medium is added and incubated for 1 hour at RT. Cells are washed twice in Ca^2+-free HBSS buffer and 35 μL Ca^2+-free HBSS buffer is added to each well. 10 μL of a test compound prepared in a Ca^2+-free HBSS solution at 4.5× of the desired concentration is added to a well and incubated for 5 minutes at RT. 10 μL of thapsigargin prepared in a Ca^2+-free HBSS solution at 5.5× of the desired concentration (5.5 uM) is added to each well and incubated for an additional 25 minutes. The initial baseline fluorescence signal is measured with a FLIPR^384 (Molecular Devices) plate reader. 5 μL of 12× calcium in HBSS (12 mM) is added and changes in cellular fluorescence are measured with the FLIPR^384 plate reader. In each well, the change in the fluorescent signal as a function of time due to calcium entry into the cell is determined by calculating the difference between the fluorescent signal measured 7 seconds after calcium addition and the initial baseline fluorescence signal at time zero (t=0). This parameter is designated Upslope. The IC50 value is calculated as the concentration at which 50% of the Upslope is inhibited. […]

[1] = target: STIM1 and Orai1 in HEK293 cells (Homo sapiens, UniProt Q96D31); conditions: HEK293 cells coexpressing STIM1 and Orai1; cited from earlier work
[2] = tested on: Jurkat cells and colon cancer cells; conditions: cited from earlier work
[3] = tested on: Jurkat cells and colon cancer cells; conditions: cited from earlier work; remark: listed apart in the source

STIM1 and Orai1 in HEK293 cells, sequence (Q96D31 whole entry): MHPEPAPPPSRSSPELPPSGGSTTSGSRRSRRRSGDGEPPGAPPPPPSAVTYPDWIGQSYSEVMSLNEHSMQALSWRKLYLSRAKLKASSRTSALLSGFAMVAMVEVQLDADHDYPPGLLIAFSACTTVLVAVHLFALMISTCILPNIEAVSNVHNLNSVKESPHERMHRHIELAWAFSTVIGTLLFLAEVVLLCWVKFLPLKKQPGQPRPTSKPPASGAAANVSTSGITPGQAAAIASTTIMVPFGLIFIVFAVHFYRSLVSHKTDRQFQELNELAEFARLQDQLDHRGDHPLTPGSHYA

IC50 (JR251 or RBL cells) [µM]	Compound	also measured
< 10	Cc1cc(C(F)(F)F)nn1-c1ccc(C(=O)Nc2ccc(Cl)cc2)cc1N [3-amino-N-(4-chlorophenyl)-4-(5-methyl-3-(trifluoromethyl)-1H-pyrazol-1-yl)benzamide]	–
< 10	Cc1cc(C(F)(F)F)n(-c2ccc(C(=O)Nc3ccccc3Cl)cc2[N+](=O)[O-])n1 [N-(2-chlorophenyl)-4-(3-methyl-5-(trifluoromethyl)-1H-pyrazol-1-yl)-3-nitrobenzamide]	–
< 10	COc1ccc(C(=O)Nc2ccc(-n3nc(C(F)(F)F)cc3C)c(N)c2)cc1 [N-(3-amino-4-(5-methyl-3-(trifluoromethyl)-1H-pyrazol-1-yl)phenyl)-4-methoxybenzamide]	–
< 10	COc1ccc(C(=O)Nc2ccc(-n3nc(-c4ccccc4)cc3C)c(N)c2)cc1 [N-(3-amino-4-(5-methyl-3-phenyl-1H-pyrazol-1-yl)phenyl)-4-methoxybenzamide]	–
< 10	Cc1cc(C(F)(F)F)n(-c2ccc(NC(=O)c3ccc(Cl)cc3)cc2[N+](=O)[O-])n1 [4-Chloro-N-(4-(3-methyl-5-(trifluoromethyl)-1H-pyrazol-1-yl)-3-nitrophenyl)benzamide]	–
< 10	CCc1cc(CC)n(-c2ccc(NC(=O)c3ccc(Cl)cc3)cc2[N+](=O)[O-])n1 [4-chloro-N-(4-(3,5-diethyl-1H-pyrazol-1-yl)-3-nitrophenyl)benzamide]	–
–	NCCOB(c1ccccc1)c1ccccc1 [2-aminoethoxydiphenylborate]	block of store-dependent Ca2+ entry [1]: completely blocked
< 10	COc1cc(C(=O)Nc2ccc(Cl)cc2)ccc1-n1nc(C(F)(F)F)cc1C [N-(4-chlorophenyl)-3-methoxy-4-(5-methyl-3-(trifluoromethyl)-1H-pyrazol-1-yl)benzamide]	–
< 10	Cc1cc(-c2ccccc2)nn1-c1ccc(NC(=O)c2cccs2)cc1N [N-(3-amino-4-(5-methyl-3-phenyl-1H-pyrazol-1-yl)phenyl)thiophene-2-carboxamide]	–
< 10	COc1ccc(C(=O)Nc2ccc(-n3nc(C(F)(F)F)cc3C)c([N+](=O)[O-])c2)cc1 [4-methoxy-N-(4-(5-methyl-3-(trifluoromethyl)-1H-pyrazol-1-yl)-3-nitrophenyl)benzamide]	–
< 10	COc1ccc(C(=O)Nc2ccc(-n3nc(C)cc3C(F)(F)F)c(N)c2)cc1 [N-(3-amino-4-(3-methyl-5-(trifluoromethyl)-1H-pyrazol-1-yl)phenyl)-4-methoxybenzamide]	–
< 10	Cc1cc(C(F)(F)F)nn1-c1ccc(C(=O)Nc2ccccc2Cl)cc1[N+](=O)[O-] [N-(2-chlorophenyl)-4-(5-methyl-3-(trifluoromethyl)-1H-pyrazol-1-yl)-3-nitrobenzamide]	–
< 10	COc1ccc(C(=O)Nc2ccc(-n3nc(C)cc3C(F)(F)F)c([N+](=O)[O-])c2)cc1 [4-methoxy-N-(4-(3-methyl-5-(trifluoromethyl)-1H-pyrazol-1-yl)-3-nitrophenyl)benzamide]	–
< 10	Cc1cc(C(F)(F)F)n(-c2ccc(C(=O)Nc3ccccc3Cl)cc2N)n1 [3-amino-N-(2-chlorophenyl)-4-(3-methyl-5-(trifluoromethyl)-1H-pyrazol-1-yl)benzamide]	–
< 10	Cc1cc(-c2ccccc2)nn1-c1ccc(NC(=O)c2cccs2)cc1[N+](=O)[O-] [N-(4-(5-methyl-3-phenyl-1H-pyrazol-1-yl)-3-nitrophenyl)thiophene-2-carboxamide]	–
< 10	COc1cc(C(=O)Nc2ccccc2Cl)ccc1-n1nc(C)cc1C(F)(F)F [N-(2-chlorophenyl)-3-methoxy-4-(3-methyl-5-(trifluoromethyl)-1H-pyrazol-1-yl)benzamide]	–
–	Cc1nnsc1C(=O)Nc1ccc(-n2nc(C(F)(F)F)cc2C(F)(F)F)cc1 [BTP-2]	inhibition of SOCE [2]: inhibits; inhibition of proliferation [3]: inhibits
< 10	COc1cc(C(=O)Nc2ccccc2Cl)ccc1-n1nc(C(F)(F)F)cc1C [N-(2-chlorophenyl)-3-methoxy-4-(5-methyl-3-(trifluoromethyl)-1H-pyrazol-1-yl)benzamide]	–
< 10	Cc1cc(C(F)(F)F)nn1-c1ccc(C(=O)Nc2ccccc2Cl)cc1N [3-amino-N-(2-chlorophenyl)-4-(5-methyl-3-(trifluoromethyl)-1H-pyrazol-1-yl)benzamide]	–
